This note sets out measurements from ChEMBL document CHEMBL4725437, “P450s under Restriction (PURE) Screen Using HepaRG and Primary Human Hepatocytes for Discovery of Novel HBV Antivirals” (ACS Med Chem Lett, 2020).

Data set [1] concerns Hepatitis B virus. The data set can be described thus: (§1) Antiviral activity against Hepatitis B virus infected in human HepaRG cells assessed as inhibition of […] under CYP450 restriction pre-treated for 1 hr with CYP450 inhibitors ABT and SKF-525A on day 5 post-infection followed by removal of media and supplemented with fresh media containing diluted compound and further incubated for 3 days then followed by treatment for 1 hr with CYP450 inhibitors ABT and SKF-525A on day 8 post-infection followed by removal of media and supplemented with fresh media containing diluted compound and further incubated for 3 days in presence of 25 uM SKF-525A and measured on day 11 post-infection by chemiluminescence immunostaining assay. In kind it is functional, organism-based.

The nature of data set [2]: Half life in human primary hepatocytes at 1 uM measured up to 3 hrs under CYP450 restriction in presence of CYP450 inhibitiors ABT and SKF-525A by LC-MS/MS analysis. In kind it is ADME, cell-based, Hepatocyte.
Data set [3] relates to Hepatitis B virus. The experiment in a line: Antiviral activity against Hepatitis B virus infected in human HepaRG cells assessed as inhibition of […] measured on day 11 post-infection by chemiluminescence immunostaining assay. Type of data set: functional, organism-based. As to conditions: 264 h.
A short description of data set [4]: as §1, with “Ratio of EC50 for antiviral activity against” for “Antiviral activity against”, “assessed as fold change for inhibition of HBV DNA replication under normal condition to EC50 for inhibition of” for “assessed as inhibition of”. In kind it is functional. The note with it: time 6 day.
Data set [5] in a line: Half life in human primary hepatocytes at 1 uM measured up to 3 hrs by LC-MS/MS analysis. Type of data set: ADME, cell-based, Hepatocyte.
Data set [6] in a line: Cytotoxicity against human HepaRG cells assessed as effect on cell viability. In kind it is cell-based.

Take `O=C(Nc1ccc(F)cc1)c1ccc(CF)c(S(=O)(=O)N2CCOCC(O)C2)c1` (stereo not given): the EC50 (in general, the concentration that produces a half-maximal response) in data set [1] came to 0.2 µM; in data set [3] it was 2.1 µM. The half-life (usually the time needed for the level to fall by half in the phase considered) at 1 µM in data set [2] was 2.65 h; in data set [5], 0.342 h. Further, in data set [4], the “Ratio EC50” value came to 11. Besides, the CC50 (commonly the concentration at which the toxic effect on the cells reaches its halfway point) in data set [6] is greater than 30 µM.
Take `CCOC(=O)C1=C(CN2CCOCC2)NC(c2nccs2)=NC1c1ccc(F)cc1Br` (stereo not given): the EC50 is 0.011 µM in data set [1] and 0.59 µM in data set [3]. For the same molecule, the values for the half-life at 1 µM in data set [2] and in data set [5] were greater than 9.33 h and 0.128 h, respectively.
In the case of `COc1ccccc1/C(Br)=C(\NC(=O)c1ccc([N+](=O)[O-])cc1)C(=O)N1CCCCC1`, the EC50 in data set [1] worked out at 0.78 µM; in data set [3] it was 5.7 µM. Besides, the half-life at 1 µM in data set [2] is greater than 9.33 h; in data set [5] it was 0.0483 h. The “Ratio EC50” value in data set [4] came to 7.3. Moreover, in data set [6], the 50% cytotoxic concentration (CC50) is greater than 30 µM.
For the molecule `COC(=O)C1=C(C)NC(c2ncc(F)cc2F)=N[C@H]1c1ccc(F)cc1Cl`, the EC50 came out at 0.26 µM in data set [1] and 0.22 µM in data set [3]. Besides, the half-life at 1 µM is 7.18 h in data set [2] and 3.15 h in data set [5].
